Laboratory results published in article PMC11480511 (Scientific Reports, 2024).
≈ marks a conversion by molar mass, not a printed value. Where “and” joins values, the source holds several entries; their conditions need not be identical. Identical values can stand only once. Like-named read-outs stand apart in the source and are kept apart here.

How the values were obtained:
ACHN = assay: NCI single-dose growth inhibition screen; type: cell-based; conditions: Homo sapiens; Renal Cancer ACHN; single dose 10^−5 M
LOX IMVI = assay: NCI single-dose growth inhibition screen; type: cell-based, human; conditions: Melanoma LOX IMVI, single dose 10^−5 M; for inhibition at 10 µM: Homo sapiens, LOX IMVI
SN12C = assay: NCI single-dose growth inhibition screen; type: cell-based; conditions: Homo sapiens; Renal Cancer SN12C; single dose 10^−5 M
MDA-MB231 = assay: NCI single-dose growth inhibition screen; type: cell-based; conditions: Homo sapiens, MDA-MB-231; Breast Cancer MDA-MB231; single dose 10^−5 M
topoisomerase IIβ = molecular target: T1, topoisomerase IIβ (Homo sapiens, UniProt Q02880); assay: Topoisomerase II inhibition, human DNA topoisomerase Elisa kit; type: biochemical; conditions: ± SEM; read-out: Topoisomerase II IC50 µM ± SEM
T1 construct: purchased
Method: Two folds of serial dilution was accomplished after standards and the tested compounds were dissolved in sample diluent. Horseradish peroxidase (HRP-avidin) and biotin-conjugated antibody were diluted 10 times each. Each well received 100 µL of each concentration of the standard or test chemicals, which were then added and incubated at 37 °C for 60 min. […] The microtiter plate was rinsed three times and given room to aspirate. After that, the plate was incubated at 37 °C for 60 min with 100 µL of HRP-avidin solution added to each well. After that, the plate was aspirated and cleaned 5 times. Each well received 90 µL of TMB substrate, and the plate was incubated for 30 min. at 37 °C in a light-protected environment. Finally, stop solution (50 µL) was loaded, and within 5 min, the absorbance at 450 nm was measured spectrophotometrically.
Topoisomerase enzyme assay
Topoisomerase I and II inhibitory activity […]
topoisomerase IIβ inhibitory activity utilizing the human DNA topoisomerase Elisa kit.
Standards and the tested compound were dissolved in sample diluent and 2 folds serial dilution was achieved. Biotin-conjugated antibody and avidin conjugated Horseradish Peroxidase (HRP-avidin) were diluted to 10 folds. 100 μL of each concentration of standard or test compound were added to each well. Incubate at 37 °C for 1 h. The liquid in each well was removed. 10 0 μL of Biotin-conjugated antibody solution was added to each well followed by incubation for 1 h at 37 °C. The microtiter plate was allowed to aspirate and washed 3 times. 100 μL of avidin conjugated Horseradish Peroxidase (HRP -avidin) solution was added to each well and the plate was incubated for 1 h at 37 °C. The plate was aspirated and washed 5 times. 90 μL of TMB substrate were added to each well and the plate was incubated for 30 min at 37 °C and protected from light. 50 μL stop so lution was added. The absorbance was measured spectrophotometrically within 5 min at 450 nm .

EKVX = assay: NCI single-dose growth inhibition screen; type: cell-based; conditions: Homo sapiens; Non-Small Cell Lung Cancer EKVX; single dose 10^−5 M
MCF7 = assay: NCI single-dose growth inhibition screen; type: cell-based, human; conditions: single dose 10^−5 M; for inhibition at 10 µM: Homo sapiens, MCF7, Breast Cancer MCF7
786-0 = assay: NCI single-dose growth inhibition screen; type: cell-based; conditions: Homo sapiens; Renal Cancer 786-0; single dose 10^−5 M
K-562 = assay: NCI single-dose growth inhibition screen; type: cell-based; conditions: Homo sapiens, K562; Leukemia K-562; single dose 10^−5 M
RXF 393 = assay: NCI single-dose growth inhibition screen; type: cell-based; conditions: Homo sapiens; Renal Cancer RXF 393; single dose 10^−5 M
[1] = tested on: P. aeruginosa ATCC 27,853; assay: Antibacterial screening, agar cup diffusion method; type: cell-based; conditions: Gram –ve strain; for MIC: Pseudomonas aeruginosa, ATCC27, read-out: Minimum inhibitory concentrations (MIC, µM) P. aeruginosa ATCC 27,853
Method: Anti-bacterial activity of the recently synthesized compounds 3a-k was evaluated at AUMC (Assiut University Mycological Centre), Assiut, Egypt. Assays were done against Gram-negative strains of K. pneumoniae (ATCC 100310, E. coli (ATCC 25922), Pseudomonas aeruginosa (ATCC 27853) and the Gram-positive S. aureus (ATCC 6538) strain utilizing standard agar cup diffusion method. The isolates from the four bacterial species examined were kept in TSB (Trypticase Soya Broth, Becton and Dickinson) with 10% glycerol at -70 °C and then subcultured on TSA (Trypticase Soya Agar, Becton and Dickinson) and TSB for 24 h at 37 °C former to inoculation. Bacterial isolates were then plated on sterile petri plates with 1 × 10^8 CFU/mL (0.5 McFarland turbidity) and 20 mL of Mueller Hinton Agar media (Oxoid) was then loaded. To ensure that the microorganisms were evenly dispersed, the plates were gently rotated before being left to harden on a level surface. Four equally spaced spherical-shaped wells (10 mm diameter) were painstakingly drilled using a sterilized cork bore after media solidification. All tested compounds under test underwent two-fold serial dilutions in a sequential manner. Three replications of 100 µL of each concentration were added to a well using a micropipette. Plates were then incubated for 24-hour at 37 °C. The average of the inhibition zones was then calculated. To determine the MICs, the natural logarithm of each diluted test substance’s concentration was plotted against the average area of the related inhibition zone. Following that, a regression line was created and the intercept on the ‘ln concentration” axis was determined, and the antilogarithm was calculated to indicate the MIC value[34],[63].

human melanoma LOX IMVI = assay: cells; conditions: for IC50: read-out: In vitro cytotoxicity (IC50) LOX IMVI (µM ± SEM)
NCI-H23 = assay: NCI single-dose growth inhibition screen; type: cell-based; conditions: Homo sapiens; Non-Small Cell Lung Cancer NCI-H23; single dose 10^−5 M
[2] = tested on: K. pneumoniae ATCC 10,031; assay: Antibacterial screening, agar cup diffusion method; type: cell-based; conditions: read-out: Minimum inhibitory concentrations (MIC, µM) K. pneumoniae ATCC 10,031
MDA-MB-468 = assay: NCI single-dose growth inhibition screen; type: cell-based; conditions: Homo sapiens; Breast Cancer MDA-MB-468; single dose 10^−5 M
OVCAR-8 = assay: NCI single-dose growth inhibition screen; type: cell-based; conditions: Homo sapiens; Ovarian Cancer OVCAR-8; single dose 10^−5 M
A549/ATCC = assay: NCI single-dose growth inhibition screen; type: cell-based; conditions: Homo sapiens; Non-Small Cell Lung Cancer A549/ATCC; single dose 10^−5 M
SK-MEL-5 = assay: NCI single-dose growth inhibition screen; type: cell-based, human; conditions: Homo sapiens, SK-MEL-5, Melanoma SK-MEL-5; single dose 10^−5 M
HL-60(TB) = assay: NCI single-dose growth inhibition screen; type: cell-based; conditions: Homo sapiens; Leukemia HL-60(TB); single dose 10^−5 M
NCI-H322M = assay: NCI single-dose growth inhibition screen; type: cell-based; conditions: Homo sapiens; Non-Small Cell Lung Cancer NCI-H322M; single dose 10^−5 M
CCRF-CEM = assay: NCI single-dose growth inhibition screen; type: cell-based; conditions: Homo sapiens; Leukemia CCRF-CEM; single dose 10^−5 M
[3] = Klebsiella pneumoniae, ATCC10, Gram –ve strain

T1 sequence (Q02880 whole entry): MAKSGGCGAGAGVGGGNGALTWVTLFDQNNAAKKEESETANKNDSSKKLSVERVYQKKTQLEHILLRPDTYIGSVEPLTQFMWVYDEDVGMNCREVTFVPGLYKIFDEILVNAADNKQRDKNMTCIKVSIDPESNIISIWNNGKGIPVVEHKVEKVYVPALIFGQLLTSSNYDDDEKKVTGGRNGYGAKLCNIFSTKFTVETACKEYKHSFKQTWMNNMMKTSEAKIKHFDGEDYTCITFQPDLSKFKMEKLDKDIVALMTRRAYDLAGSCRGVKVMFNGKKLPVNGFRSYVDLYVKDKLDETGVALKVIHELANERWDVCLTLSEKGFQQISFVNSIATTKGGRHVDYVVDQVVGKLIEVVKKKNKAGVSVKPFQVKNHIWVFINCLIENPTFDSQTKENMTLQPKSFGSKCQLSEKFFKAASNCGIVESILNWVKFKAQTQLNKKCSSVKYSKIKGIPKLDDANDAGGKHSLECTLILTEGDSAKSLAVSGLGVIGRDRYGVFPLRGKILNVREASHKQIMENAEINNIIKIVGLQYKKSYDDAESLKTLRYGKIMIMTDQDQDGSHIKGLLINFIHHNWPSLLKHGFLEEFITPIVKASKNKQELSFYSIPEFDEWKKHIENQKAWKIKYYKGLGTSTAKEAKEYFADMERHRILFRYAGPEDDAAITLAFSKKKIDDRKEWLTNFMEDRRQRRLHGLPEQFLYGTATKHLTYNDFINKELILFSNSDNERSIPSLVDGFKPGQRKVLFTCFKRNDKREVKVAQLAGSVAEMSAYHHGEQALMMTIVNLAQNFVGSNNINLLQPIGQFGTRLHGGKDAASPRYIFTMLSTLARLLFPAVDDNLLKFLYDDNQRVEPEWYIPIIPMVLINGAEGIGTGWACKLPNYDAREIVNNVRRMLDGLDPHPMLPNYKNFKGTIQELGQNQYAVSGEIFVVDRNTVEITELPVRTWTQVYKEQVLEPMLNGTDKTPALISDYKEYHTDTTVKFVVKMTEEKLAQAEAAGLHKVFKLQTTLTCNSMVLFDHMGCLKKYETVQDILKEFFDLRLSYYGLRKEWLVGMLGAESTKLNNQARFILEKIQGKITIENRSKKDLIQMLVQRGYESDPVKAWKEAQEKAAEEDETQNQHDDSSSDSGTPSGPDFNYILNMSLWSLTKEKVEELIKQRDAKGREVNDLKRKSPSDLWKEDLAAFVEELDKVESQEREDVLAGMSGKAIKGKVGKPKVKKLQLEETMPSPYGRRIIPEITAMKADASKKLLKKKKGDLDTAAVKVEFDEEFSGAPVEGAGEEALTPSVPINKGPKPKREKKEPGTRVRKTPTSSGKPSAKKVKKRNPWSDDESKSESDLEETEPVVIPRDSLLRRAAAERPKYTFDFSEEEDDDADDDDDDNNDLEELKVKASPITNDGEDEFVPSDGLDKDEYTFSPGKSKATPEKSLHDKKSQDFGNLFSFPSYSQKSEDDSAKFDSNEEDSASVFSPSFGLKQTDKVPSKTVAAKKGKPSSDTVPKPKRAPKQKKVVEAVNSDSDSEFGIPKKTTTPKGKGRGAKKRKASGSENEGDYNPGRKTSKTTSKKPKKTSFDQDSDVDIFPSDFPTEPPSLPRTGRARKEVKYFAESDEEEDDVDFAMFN

Row | Compound | inhibition at 10 µM (ACHN) [%] | inhibition at 10 µM (LOX IMVI) [%] | Growth Inhibition (%) (LOX IMVI) | inhibition at 10 µM (SN12C) [%] | inhibition at 10 µM (MDA-MB231) [%] | IC50 (topoisomerase IIβ) [µM] | inhibition at 10 µM (EKVX) [%] | inhibition at 10 µM (MCF7) [%] | inhibition at 10 µM (786-0) [%] | inhibition at 10 µM (K-562) [%] | inhibition at 10 µM (RXF 393) [%] | MIC [1] [µM] | viability at 0.4 µM (human melanoma LOX IMVI) [%] | viability at 1.6 µM (human melanoma LOX IMVI) [%] | viability at 25 µM (human melanoma LOX IMVI) [%] | viability at 100 µM (human melanoma LOX IMVI) [%] | IC50 (human melanoma LOX IMVI) [µM] | inhibition at 10 µM (NCI-H23) [%] | inhibition at 10 µM (MDA-MB-468) [%] | inhibition at 10 µM (OVCAR-8) [%] | also measured
1 | O=C(O)c1cn(C2CC2)c2cc(N3CCN(C(=O)CCCN4C(=O)CSC4=O)CC3)c(F)cc2c1=O [3 L, 1-Cyclopropyl-7-(4-(4-(2,4-dioxothiazolidin-3-yl)butanoyl)piperazin-1-yl)-6-fluoro-4-oxo-1,4-dihydroquinoline-3-carboxylic acid] | 0.6 | 0 | - (- means no detected activity) | 14.6 | 10.1 | 14.3 ± 0.78 | 23.8 | < 0 | 4.8 | < 0 | 30.7 | > 20 | 84.8 | 78.9 | 59.8 | 49.1 | 109 ± 6.15 | 5.7 | 2.1 | < 0 | MIC [2, 3]: > 20 µM; inhibition at 10 µM (A549/ATCC): 6.7%; inhibition at 10 µM (SK-MEL-5): < 0%; inhibition at 10 µM (HL-60(TB)): < 0%; inhibition at 10 µM (NCI-H322M): 0%
2 | O=C(O)c1cn(C2CC2)c2cc(N3CCN(C(=O)CCCN4C(=O)SC(=Cc5ccccc5)C4=O)CC3)c(F)cc2c1=O [3a, 7-[4-[4-[5-benzylidene-2,4-dioxo-thiazolidin-3-yl]butanoyl]piperazin-1-yl]-1-cyclopropyl-6-fluoro-4-oxo-quinoline-3-carboxylic acid] | 14.5 | 41.4 | 53.25% and 53.3% | 2.6 | 25.2 | 35.6 ± 1.94 | < 0 | 55.9 | 21.2 | 22.5 | < 0 | > 20 | 77.9 | 69.2 | 48.8 | 40.4 | 26.7 ± 1.5 | 10.2 | 12.9 | 15.4 | Growth Inhibition (%) (MCF7; Breast Cancer MCF7): 55.9%; MIC ([2]; Gram –ve strain): 0.22 µM (≈ 0.133 µg/mL); MIC [2, 3]: 0.13 to 0.8 µM (≈ 0.0786 to 0.484 µg/mL); inhibition at 10 µM (A549/ATCC): 14.2%; inhibition at 10 µM (SK-MEL-5): 24.6%; inhibition at 10 µM (HL-60(TB)): < 0%; inhibition at 10 µM (NCI-H322M): 9.4%; inhibition at 10 µM (CCRF-CEM): 9.8%
3 | O=C(O)c1cn(C2CC2)c2cc(N3CCN(C(=O)CCCN4C(=O)S/C(=C\c5ccc(F)cc5)C4=O)CC3)c(F)cc2c1=O [3i] | 4.6 | 51.3 | 51.3% | 2.2 | 26.4 | 15 ± 0.81 | < 0 | 1.3 | 18.2 | < 0 | < 0 | > 20 | 74.9 | 67.8 | 51.5 | 41.2 | 25.4 ± 1.43 | 6.5 | 7.6 | 6.8 | Minimum inhibitory concentrations (MIC, µM) P. aeruginosa ATCC 27,853 [1]: did not show considerable anti-bacterial activity; MIC [2, 3]: > 20 µM; inhibition at 10 µM (A549/ATCC): 10.4%; inhibition at 10 µM (SK-MEL-5): 5.5%; inhibition at 10 µM (HL-60(TB)): < 0%; inhibition at 10 µM (NCI-H322M): 11.5%; inhibition at 10 µM (CCRF-CEM): 4.2%
4 | O=C(O)c1cn(C2CC2)c2cc(N3CCN(C(=O)CCCN4C(=O)S/C(=C\c5ccc([N+](=O)[O-])cc5)C4=O)CC3)c(F)cc2c1=O [3k] | 0.1 | 8.88 | 8.9% | 8.7 | 11.2 | 18.7 ± 1.02 | 24.4 | < 0 | 14.1 | < 0 | 47.9 | > 20 | 110 | 102 | 80.2 | 65.4 | > 150 | 6.2 | < 0 | < 0 | inhibition at 10 µM (A549/ATCC): 5.5%; inhibition at 10 µM (SK-MEL-5): 0.8%; inhibition at 10 µM (HL-60(TB)): < 0%; inhibition at 10 µM (NCI-H322M): < 0%
